Data taken from patent US11458091B2, “Compositions and methods for the treatment of opioid overdose” (Opiant Pharmaceuticals, Inc., priority 2016, dated 2022).
Read-outs that look alike come from different tables or passages of the source.

Key:
[1] = for AUCextrap / Cmax/D / Lambda z: mean
[2] = in vivo; cited from earlier work
[3] = cited from earlier work
clinical = conditions: human, in vivo; for concentration at 0 h: Hour 0.0; for concentration at 36 h: Hour 36.0; for concentration at 48 h: Hour 48.0; for concentration at 60 h: Hour 60.0; for concentration at 72 h: Hour 72.0; for concentration at 0.08 h: Hour 0.08; for concentration at 2 h: Hour 2.0; for concentration at 3 h: Hour 3.0; for Tmax: median; for concentration at 0.5 h: Hour 0.50; for concentration at 1 h: Hour 1.0; for concentration at 4 h: Hour 4.0
[4] = Intranasal naltrexone with Intravail, AUC (data not presented); assay type: in vivo; conditions: effect of Intravail
Source text: This important difference could not be predicted based on structure of the opioid antagonists, or the function of these moieties as opioid antagonists.

[5] = design: increase of total exposure (AUC): reference not given here; conditions: intranasal formulation with […] Intravail, cited from earlier work
[6] = 3 mg plus […] Intravail IN, N = 14
[7] = 1.5 mg, Mean plasma concentration of nalmefene, 1.5 mg IM
[8] = 1.5 mg, Mean plasma concentration of nalmefene, 1.5 mg IN
[9] = 3 mg, Mean plasma concentration of nalmefene, 3 mg + […] Intravail IN
[10] = 3 mg, Mean plasma concentration of nalmefene, 3 mg IN

In the case of `C=C1CC[C@@]2(O)[C@H]3Cc4ccc(O)c5c4[C@@]2(CCN3CC2CC2)[C@H]1O5` [Nalmefene, 17-cyclopropylmethyl-4,5α-epoxy-6-methylenemorphinan-3,14-diol], the “Mean plasma concentration of nalmefene” value ([1]; 1.5 mg IM, Hour 0.08) is reported as 0.457 ng/mL, the “Mean plasma concentration of nalmefene” value ([1]; 1.5 mg IM, Hour 0.17) is reported as 1.01 ng/mL and the “Mean plasma concentration of nalmefene” value ([1]; 1.5 mg IM, Hour 0.25) is reported as 1.43 ng/mL. The “Mean plasma concentration of nalmefene” value ([1]; 1.5 mg IM, Hour 0.33) was 1.33 ng/mL, the “Mean plasma concentration of nalmefene” value ([1]; 1.5 mg IM, Hour 0.50) was 1.19 ng/mL and the “Mean plasma concentration of nalmefene” value ([1]; 1.5 mg IM, Hour 0.75) was 1.14 ng/mL. The “Mean plasma concentration of nalmefene” value ([1]; 1.5 mg IM, Hour 1.0) was 1.08 ng/mL, the “Mean plasma concentration of nalmefene” value ([1]; 1.5 mg IM, Hour 2.0) was 1.03 ng/mL and the “Mean plasma concentration of nalmefene” value ([1]; 1.5 mg IM, Hour 3.0) was 0.878 ng/mL. For the same compound, the “Mean plasma concentration of nalmefene” value ([1]; 1.5 mg IM, Hour 4.0) was 0.798 ng/mL, the “Mean plasma concentration of nalmefene” value ([1]; 1.5 mg IM, Hour 6.0) was 0.688 ng/mL and the “Mean plasma concentration of nalmefene” value ([1]; 1.5 mg IM, Hour 8.0) was 0.603 ng/mL. For the same compound, the “Mean plasma concentration of nalmefene” value ([1]; 1.5 mg IM, Hour 12.0) was 0.470 ng/mL, the “Mean plasma concentration of nalmefene” value ([1]; 1.5 mg IM, Hour 16.0) was 0.298 ng/mL and the “Mean plasma concentration of nalmefene” value ([1]; 1.5 mg IM, Hour 24.0) was 0.128 ng/mL. The “Mean plasma concentration of nalmefene” value ([1]; 1.5 mg IM, Hour 30.0) was 0.0740 ng/mL, the AUCextrap ([1]; 1.5 mg IM, N = 13) was 22.6% and the Cmax/D ([1]; 1.5 mg IM, N = 13) was 1.12 ng/mL/mg. It also gave a Lambda z ([1]; 1.5 mg IM, N = 13) of 0.094 h⁻¹, an AUCextrap ([1]; 1.5 mg IN, N = 14) of 30.6% and a Cmax/D ([1]; 1.5 mg IN, N = 14) of 0.646 ng/mL/mg. For the same compound, the Lambda z ([1]; 1.5 mg IN, N = 14) was 0.131 h⁻¹, the AUCextrap ([1]; 3 mg IN, N = 14) was 17.9% and the Cmax/D ([1]; 3 mg IN, N = 14) was 0.731 ng/mL/mg. The Lambda z ([1]; 3 mg IN, N = 14) was 0.101 h⁻¹, the AUCextrap [1, 6] was 14.6% and the Cmax/D [1, 6] was 1.65 ng/mL/mg. For the same compound, the Lambda z [1, 6] was 0.117 h⁻¹, the “incidence of common adverse reactions (nausea, vomiting, tachycardia, hypertension, postoperative pain, fever, dizziness, headache, chills, hypotension, vasodilation)” value [2] was “greater than 1%” and the potency versus naloxone ([3]; milligram-per-milligram basis) was “equipotent on a milligram-per-milligram basis”. The clearance ([3]; versus naloxone) was “slower than naloxone”, the half-life (clinical; 1.5 mg, 1.5 mg IN, mean, N = 14) was 404 min and the concentration at 0 h (clinical; [7]) was 0 ng/mL. For the same compound, the concentration at 36 h (clinical; [7]) was 0 ng/mL, the concentration at 48 h (clinical; [7]) was 0 ng/mL and the concentration at 60 h (clinical; [7]) was 0 ng/mL. It also gave a concentration at 72 h (clinical; [7]) of 0 ng/mL, a concentration at 0 h (clinical; [8]) of 0 ng/mL and a concentration at 0.08 h (clinical; [8]) of 0 ng/mL. For the same compound, the concentration at […] (clinical; 1.5 mg, Mean plasma concentration of nalmefene, 1.5 mg IN, Hour 0.75) was 0.691 ng/mL, the concentration at 2 h (clinical; [8]) was 0.872 ng/mL and the concentration at 3 h (clinical; [8]) was 0.712 ng/mL. The concentration at 12 h (clinical; 1.5 mg, Mean plasma concentration of nalmefene, 1.5 mg IN, Hour 12.0) was 0.141 ng/mL, the concentration at 30 h (clinical; 1.5 mg, Mean plasma concentration of nalmefene, 1.5 mg IN, Hour 30.0) was 0 ng/mL and the concentration at 36 h (clinical; [8]) was 0 ng/mL. The concentration at 48 h (clinical; [8]) was 0 ng/mL, the concentration at 60 h (clinical; [8]) was 0 ng/mL and the concentration at 72 h (clinical; [8]) was 0 ng/mL. It also gave a Tmax (clinical; 1.5 mg, 1.5 mg IN, N = 14) of 2 h, an AUC(0-t) (clinical; 3 mg, AUC0-t, 3 mg plus […] Intravail IN, mean, N = 14) of 17.3 ng·h/mL and a half-life (clinical; 3 mg, 3 mg IN, mean, N = 14) of 470 min. The half-life (clinical; 3 mg, 3 mg plus […] Intravail IN, mean, N = 14) was 407 min, the concentration at 0 h (clinical; [9]) was 0 ng/mL and the concentration at 0.08 h (clinical; [9]) was 0.931 ng/mL. It also gave a concentration at […] (clinical; 3 mg, Mean plasma concentration of nalmefene, 3 mg + […] Intravail IN, Hour 0.17) of 3.69 ng/mL, a concentration at […] (clinical; 3 mg, Mean plasma concentration of nalmefene, 3 mg + […] Intravail IN, Hour 0.25) of 4.38 ng/mL and a concentration at […] (clinical; 3 mg, Mean plasma concentration of nalmefene, 3 mg + […] Intravail IN, Hour 0.33) of 3.53 ng/mL. For the same compound, the concentration at 0.5 h (clinical; [9]) was 3.2 ng/mL, the concentration at 1 h (clinical; [9]) was 2.54 ng/mL and the concentration at 2 h (clinical; [9]) was 1.99 ng/mL. The concentration at 3 h (clinical; [9]) was 1.57 ng/mL, the concentration at 4 h (clinical; [9]) was 1.32 ng/mL and the concentration at 6 h (clinical; 3 mg, Mean plasma concentration of nalmefene, 3 mg + […] Intravail IN, Hour 6.0) was 0.91 ng/mL. The concentration at 36 h (clinical; [9]) was 0.0149 ng/mL, the concentration at 48 h (clinical; [9]) was 0 ng/mL and the concentration at 60 h (clinical; [9]) was 0 ng/mL. For the same compound, the concentration at 72 h (clinical; [9]) was 0 ng/mL, the concentration at 0 h (clinical; [10]) was 0 ng/mL and the concentration at 0.08 h (clinical; [10]) was 0 ng/mL. The concentration at […] (clinical; 3 mg, Mean plasma concentration of nalmefene, 3 mg IN, Hour 0.25) was 0.392 ng/mL, the concentration at 0.5 h (clinical; [10]) was 1.01 ng/mL and the concentration at […] (clinical; 3 mg, Mean plasma concentration of nalmefene, 3 mg IN, Hour 0.75) was 1.4 ng/mL. It also gave a concentration at 1 h (clinical; [10]) of 1.68 ng/mL, a concentration at 3 h (clinical; [10]) of 1.53 ng/mL and a concentration at 4 h (clinical; [10]) of 1.22 ng/mL. For the same compound, the concentration at 24 h (clinical; 3 mg, Mean plasma concentration of nalmefene, 3 mg IN, Hour 24.0) was 0.125 ng/mL, the concentration at 48 h (clinical; [10]) was 0 ng/mL and the concentration at 60 h (clinical; [10]) was 0 ng/mL. It also gave a concentration at 72 h (clinical; [10]) of 0 ng/mL and a Tmax (clinical; 3 mg, 3 mg IN, N = 14) of 2 h.

With `O=C1CC[C@@]2(O)[C@H]3Cc4ccc(O)c5c4[C@@]2(CCN3CC2CC2)[C@H]1O5` [naltrexone, 17-(cyclopropylmethyl)-4,5α-epoxy-3,14-dihydroxymorphinan-6-one] the AUC [4] was “increased significantly”.

In the case of `CNS(=O)(=O)Cc1ccc2[nH]cc(CCN(C)C)c2c1` [sumatriptan], the “increase of maximum plasma concentration” value ([5]; in comparison to Imitrex nasal spray) is listed as “almost four-fold”, the Tmax [5] is listed as 8 to 10 min and the “increase of total exposure (AUC)” value [5] is listed as 32%.
